Assay results from patent publication US7994133B2, “Isozyme-specific antagonists of protein kinase C” (The Board of Trustees of the Leland Stanford Junior …, priority 2003, dated 2011).

Key:
Format in all cases: cell-based
[1] = system: neonatal rat cardiac myocytes; assay: Cardiac myocyte contraction rate measurement; details: for effect on ΨεRACK effect on contraction (negative chronotropy): PMA and ΨεRACK, prior application of the inhibitor; for agonistic effect on contraction rate of cardiac myocytes: prior to PMA; for effect on the decrease in contraction rate induced by PMA: 1 nM or 5 nM PMA about 20 minutes after peptide
Description: Primary cardiac myocyte cell cultures (90-95% pure) were prepared from newborn rats as previously described (Gray, M. O., et al., J. Biol. Chem. 272:30945-30951, (1997); Disatnik, M.-H., et al., Exp. Cell Res. 210:287-297, (1994)). Peptides (100 nM-1 μM applied concentration) were introduced into cells by transient permeabilization (Johnson, J. A., et al., Circ. Res. 79:1086-1099, (1996)) with sham permeabilization as control, or as carrier-peptide conjugates (30 nM-1 μM) (Derossi, D. et al., surpa (1994); Derossi, D. et al., surpa (1996); Théodore, L., et al., surpa (1995)) with a carrier-carrier dimer as a control.
Cells were treated for 10-20 minutes in the absence or presence of peptide followed by an additional incubation with or without 1 nM phorbol 12-myristate 13-acetate (PMA) for 10 or 20 minutes. Alternatively, cells were incubated for 10 minutes with 100 nM PMA (positive control) or in the absence of PMA.
Measurements of cardiac myocyte contraction rate were carried out essentially as previously described (Johnson, J. A., et al., J. Biol. Chem. 271:24962-24966, (1996). In brief, cardiomyocytes cultured on 35 mm plates were placed in a temperature-regulation apparatus at 37° C. (Medical Systems Corp.) and positioned on the stage of an inverted microscope (Carl Zeiss Inc.). The contraction rates of four cells in one microscopic field were determined every 2 minutes for 15 seconds each. The basal contraction rate (˜300 beats/minute) was stable over many hours.
Peptide SEQ ID Nos:3, 55 and 79 were introduced into cardiac myocyte cell cultures prepared from newborn rats by transient permeabilization, with sham permeabilization as control, or as carrier-peptide conjugates with a carrier-carrier dimer as control. The cells were treated for 10-20 minutes in the absence or presence of peptide followed by an additional incubation with or without phorbol 12-myristate 13-acetate (PMA) for 10 or 20 minutes. Alternatively, cells were incubated for 10 minutes with 100 nM PMA (positive control) or in the absence of PMA. The effect of the peptide and/or PMA was determined by measuring the contraction rate of the myocytes, as described in Example 1B.

[2] = system: neonatal rat cardiac myocytes; assay: Cardiac myocyte contraction rate measurement; details: 40 minutes after PMA addition, n=4, p<0.05; PMA alone versus with N-ΨεRACK
rat cardiac myocytes = assay: Simulated ischemia, cell damage by trypan blue exclusion; details: for effect on ΨεRACK-induced protection from ischemic damage: in combination with ΨεRACK; for effect on response to ischemia: peptide alone before simulated ischemia
Description: Cardiac myocytes were isolated from adult male rats as previously described (Chen et al., Proc. Natl. Acad. Sci., 96(22):12784 (1999)). Myocytes in incubation buffer were treated with a peptide or combination of peptides, prepared as described in Example 1, for 15 minutes. Myocytes were then pelleted at 1000 rpm for 1 minute in a degassed incubation buffer saturated with nitrogen and incubated at 37° C. for 3 hours to simulate ischemia. Cell damage was assessed after the 3 hours by trypan blue exclusion and percent cell with damage was determined as previously described (Chen et al., Proc. Natl. Acad. Sci., 96(22):12784 (1999)).

In the case of `CCCCCCCCCCCCCC(=O)O[C@@H]1[C@@H](C)[C@@]2(O)[C@@H](C=C(CO)C[C@]3(O)C(=O)C(C)=C[C@@H]23)[C@@H]2C(C)(C)[C@]12OC(C)=O` [PMA, phorbol 12-myristate 13-acetate, reference compound], the “decrease from the basal contraction rate” value ([1]; PMA alone) is reported as 11±4% and the “decrease in contraction rate induced by 10 nM PMA” value [2] is reported as 47±3%.

For `COc1ccc2c(c[n+](C)c3c4cc5c(cc4ccc23)OCO5)c1OC` [chelerythrine, reference compound], the “effect on ΨεRACK effect on contraction (negative chronotropy)” value [1] was “inhibited” and the “effect on ΨεRACK-induced protection from ischemic damage” value (“effect on ΨεRACK-induced protection” below) (rat cardiac myocytes) was “reversed”.

With “EAVSLKPT (listed as Homo sapiens) [εV1-2, reference compound]” the “effect on ΨεRACK effect on contraction (negative chronotropy)” value [1] was “abolished” and the “effect on ΨεRACK-induced protection” value (rat cardiac myocytes) was “reversed”.

For “HAAPIGYD (Alternative pseudo-epsilon RACK peptide) [A-ΨεRACK]”, the “agonistic effect on contraction rate of cardiac myocytes” value ([1]; peptide alone) was “not induced”, the “effect on ΨεRACK-induced protection” value (rat cardiac myocytes) was “did not” and the “effect on response to ischemia” value (rat cardiac myocytes) was “no effect”.

With “HDAPIGYD (listed as Homo sapiens) [ΨεRACK, εPKC agonist peptide, εPKC amino acid residues 85-92]” the “effect on the decrease in contraction rate induced by PMA” value [1] was “reduced the decrease in contraction rate”, the “decrease in contraction rate from the basal rate” value ([1]; peptide alone, 20 minutes after peptide addition) was 9±2% and the “decrease from the basal contraction rate” value ([1]; ΨεRACK together with PMA) was 44±6%. The “reduction of ischemia-induced cell damage” value (rat cardiac myocytes; peptide 15 minutes before 3 hours simulated ischemia) was 60%.

With “HNAPIGYD (A modification of SEQ ID NO3) [N-ΨεRACK, εPKC antagonist peptide derived from ΨεRACK, D substituted by N]” the “effect on the decrease in contraction rate induced by PMA” value [1] was “able to reduce the decrease in contraction rate”, the “decrease in contraction rate” value ([1]; cells treated with N-ΨεRACK, then ΨεRACK at 15 minutes and 1 nM PMA at 30 minutes) was less than 10% and the “agonistic effect on contraction rate of cardiac myocytes” value ([1]; peptide alone) was “no agonistic effect”. The “decrease in contraction rate induced by 10 nM PMA” value [2] was 24±5%, the “effect on ΨεRACK-induced protection” value (rat cardiac myocytes) was “abolished” and the “effect on response to ischemia” value (rat cardiac myocytes) was “no effect”.
